From patent US10167266B2, “Sodium channel blockers” (Parion Sciences, Inc., priority 2002, dated 2019)
Counter-ions that a name gives are not always drawn.

What was measured:
[1] = system: sodium channel (ENaC), canine bronchial epithelia; assay: Sodium channel blocking activity: inhibition of short circuit current (ISC) in airway epithelial monolayers in Ussing chambers; format: cell-based; conditions: for Fold potency relative to amiloride: Example 51; for Fold Amiloride* / Fold Enhancement Over Amiloride: potency in canine bronchial epithelia relative to amiloride
Method: One assay used to assess mechanism of action and/or potency of the compounds of the present invention involves the determination of lumenal drug inhibition of airway epithelial sodium currents measured under short circuit current (ISC) using airway epithelial monolayers mounted in Ussing chambers. Cells obtained from freshly excised human, dog, sheep or rodent airways are seeded onto porous 0.4 micron Snapwell™ Inserts (CoStar), cultured at air-liquid interface (ALI) conditions in hormonally defined media, and assayed for sodium transport activity (ISC) while bathed in Krebs Bicarbonate Ringer (KBR) in Using chambers. All test drug additions are to the lumenal bath with half-log dose addition protocols (from 1×10^−11 M to 3×10^−5 M), and the cumulative change in ISC (inhibition) recorded. All drugs are prepared in dimethyl sulfoxide as stock solutions at a concentration of 1×10^−2 M and stored at −20° C. Eight preparations are typically run in parallel; two preparations per run incorporate amiloride and/or benzamil as positive controls. After the maximal concentration (5×10^−5 M) is administered, the lumenal bath is exchanged three times with fresh drug-free KBR solution, and the resultant ISC measured after each wash for approximately 5 minutes in duration. Reversibility is defined as the percent return to the baseline value for sodium current after the third wash. All data from the voltage clamps are collected via a computer interface and analyzed off-line.
Dose-effect relationships for all compounds are considered and analyzed by the Prism 3.0 program. IC50 values, maximal effective concentrations, and reversibility are calculated and compared to amiloride and benzamil as positive controls.
Amiloride was also tested in this assay as a positive control. The results for the compounds of the present invention are reported as fold-enhancement values relative to amiloride.

Cl.Cl.N=C(N)NCCOc1ccc(CCCCNC(=N)NC(=O)c2nc(Cl)c(N)nc2N)cc1 [drawing 64: X=NH—C(═NH)—NH2, N-(3,5-diamino-6-chloropyrazine-2-carbonyl)-N′-{4-[4-(2-guanidinoethoxy)-phenyl]butyl}guanidine dihydrochloride]
Fold potency relative to amiloride [1]: 98.0 ± 58.5 (18) | Fold Amiloride* ([1]; Example 45): 120.6 ± 60.8 (11) fold | melting point: 223 to 230 °C

N=C(N)c1ccc(CCCCNC(N)=NC(=O)c2nc(Cl)c(N)nc2N)cc1 [drawing 62: X=C═NH, Y=NH2, 4-{4-[N′-(3,5-Diamino-6-chloropyrazine-2-carbonyl)guanidino]butyl}benzamidine]
Fold Amiloride* ([1]; Example 43): 53.2 ± 19.3 (2) fold | melting point: 140 to 170 °C (dec.)

N=C(NCCCCc1ccc(OCCN)cc1)NC(=O)c1nc(Cl)c(N)nc1N (as salt: hydrochloride) [drawing 61: R=NH2, n=2, 4-[4-(2-aminoethyloxy)phenyl)butylamidino-3,5-diamino-6-chloropyrazinecarboxamide hydrochloride]
melting point: > 178 °C (dec.)

N=C(NCCCCc1cccc(OCC(O)CO)c1)NC(=O)c1nc(Cl)c(N)nc1N (centres unmarked) (as salt: hydrochloride) [drawing 69: R=CH2OH, Meta, 4-[3-(2-,3-Dihydroxypropyloxyl)phenyl)]butylamidino-3,5-diamino-6-chloropyrazinecarboxamide hydrochloride]
melting point: 91 to 93 °C

Cl.N=C(NCCCCc1ccc(OCC(O)C(O)CO)cc1)NC(=O)c1nc(Cl)c(N)nc1N (centres unmarked)
melting point: 148 °C (dec.)

N=C(NCCCCc1ccc(N)cc1)NC(=O)c1nc(Cl)c(N)nc1N (as salt: hydrochloride) [drawing 60: R=NH2, N=0, 4-[4-(4-Amino)phenyl)]butylamidino-3,5-diamino-6-chloropyrazinecarboxamide hydrochloride]
melting point: 195 to 200 °C

N=C(NCCCCc1ccc(OCCOC2CCCCO2)cc1)NC(=O)c1nc(Cl)c(N)nc1N (centres unmarked) [Example 20]
melting point: 161 °C

CC(O)COc1ccc(CCCCNC(=N)NC(=O)c2nc(Cl)c(N)nc2N)cc1 (centres unmarked) (as salt: hydrochloride) [Example 18, 4-[4-(2-Hydroxypropyloxy)phenyl)]butylamidino-3,5-diamino-6-chloropyrazinecarboxamide hydrochloride]
melting point: 212 to 214 °C

N=C(NCCCCc1ccccc1OCC(O)CO)NC(=O)c1nc(Cl)c(N)nc1N (centres unmarked) [drawing 69: R=CH2OH, Ortho, 4-[2-(2-,3-Dihydroxypropyloxy)phenyl)]butylamidino-3,5-diamino-6-chloropyrazinecarboxamide hydrochloride]
Fold Amiloride* ([1]; Example 50): 24.0 ± 1.0 (2) fold

N=C(NCCCCc1cccc(OCCO)c1)NC(=O)c1nc(Cl)c(N)nc1N (as salt: hydrochloride) [drawing 69: R=H, Meta, 4-[3-(2-Hydroxyethyloxy)phenyl)butylamidino-3,5-diamino-6-chloropyrazinecarboxamide hydrochloride]
melting point: 161 to 163 °C (dec.)

COCCOCCOc1ccc(CCCCNC(=N)NC(=O)c2nc(Cl)c(N)nc2N)cc1 [drawing 50: n=2, 4-[4-(1,4,7-Trioxaoct-1-yl)phenyl]-butyl amidino-3,5-diamino-6-chloropyrazinecarboxamide hydrochloride]
Fold Enhancement Over Amiloride ([1]; Example 30): 42 fold | Fold Amiloride* ([1]; Example 48): 76.1 (1) fold

Cl.NC(=NCCCCc1ccc(OCCO)cc1)NC(=O)c1nc(Cl)c(N)nc1N [drawing 61: R=OH, n=2]
Fold potency relative to amiloride [1]: 84.9 ± 30.3 | Fold Amiloride* ([1]; Example 42): 84.9 ± 30.3 (6) fold | Fold Amiloride* ([1]; Example 47): 84.9 ± 30.3 (6) fold | Fold Amiloride* ([1]; Example 50): 80.3 ± 25.5 (9) fold

COCCOCCOc1ccc(CCCCNC(=N)NC(=O)c2nc(Cl)c(N)nc2N)cc1 (as salt: hydrochloride) [drawing 50: n=2, 4-[4-(1,4,7-Trioxaoct-1-yl)phenyl]-butyl amidino-3,5-diamino-6-chloropyrazinecarboxamide hydrochloride]
melting point: 110 to 125 °C

NC(=NC(=O)c1nc(Cl)c(N)nc1N)NCCCCc1ccc(OC2OC(C(=O)O)C(O)C(O)C2O)cc1 (centres unmarked) [drawing 51: R^5=—O-Glucuronide Na^+ Salt, 4-[4-(5-Carboxy-glucopyranonuronate-1-O-yl)-phenyl]butylamidino-3,5-diamino-6-chloropyrazinecarboxamide]
Fold Enhancement Over Amiloride ([1]; Example 31): 11.2 fold

CCOC(=O)COc1ccc(CCCCNC(N)=NC(=O)c2nc(Cl)c(N)nc2N)cc1 [drawing 68: OCH2CO2ET, (4-{4-[N′-(3,5-Diamino-6-chloropyrazine-2-carbonyl)guanidino]butyl}phenoxy)acetic acid ethyl ester]
Fold Amiloride* ([1]; Example 49): 20 (1) fold

N=C(NCCCCc1ccccc1OCC(O)CO)NC(=O)c1nc(Cl)c(N)nc1N (centres unmarked) (as salt: hydrochloride) [drawing 69: R=CH2OH, Ortho, 4-[2-(2-,3-Dihydroxypropyloxy)phenyl)]butylamidino-3,5-diamino-6-chloropyrazinecarboxamide hydrochloride]
melting point: 200 to 205 °C

CC1(C)OCC(COc2ccc(CCCCNC(=N)NC(=O)c3nc(Cl)c(N)nc3N)cc2)O1 (centres unmarked) [drawing 48: R=H3CxCH3*, 4-[4-(2,2 Dimethyl-[1,3]dioxolan-4 yl)methyloxyphenyl]butylamidino-3,5-diamino-6-chloropyrazinecarboxamide]
Fold Enhancement Over Amiloride ([1]; Example 29): 91 fold

N=C(NCCCCc1ccc(CCO)cc1)NC(=O)c1nc(Cl)c(N)nc1N [drawing 60: R=OH, N=2, 4-(4-(2-Hydroxyethyl)phenyl)butylamidino-3,5-diamino-6-chloropyrazinecarboxamide hydrochloride]
Fold Amiloride* ([1]; Example 41): 79.2 ± 30.6 (4) fold | Fold Amiloride* ([1]; Example 47): 79.2 ± 30.6 (4) fold

Cl.Cl.N=C(NCCCCc1ccc(OCCN(C[C@@H](O)[C@@H](O)CO)C[C@@H](O)[C@@H](O)CO)cc1)NC(=O)c1nc(Cl)c(N)nc1N [drawing 67: O CH2 CH2 NR R^a,c (r18), N-[4-(4-{2-[bis-((2R,3S)-2,3,4-trihydroxybutyl)amino]ethoxy}phenyl)-butyl]-N′-(3,5-diamino-6-chloropyrazine-2-carbonyl)guanidine dihydrochloride]
Fold Amiloride* ([1]; Example 48): 56.0 (1) fold | melting point: 93 to 96 °C (dec.)

N=C(NCCCCc1ccc(OCC(N)=O)cc1)NC(=O)c1nc(Cl)c(N)nc1N [drawing 65: R=—NH2, 2-{4-[N′-(3,5-diamino-6-chloropyrazine-2-carbonyl)guanidino]-4-butylphenoxy}acetamide hydrochloride]
Fold Amiloride* ([1]; Example 46): 48.2 ± 24.1 (7) fold
